Test results reported in US12138301B2, “Compounds including a mutant KRAS sequence and a lipid and uses thereof” (Elicio Therapeutics, Inc., priority 2018, dated 2024).
Entries after “also recorded” stand apart in the source; their conditions may differ.

Legend:
splenocytes [1] = assay: ELISpot analysis for IFNγ on splenocytes, higher antigen concentration and bi-weekly or weekly dosing (Example 4); assay type: in vivo, C57BL/6 mice; settings: peptide 50 μg s.c.; for KRas-specific CD8+ T-cell response (9mers): restimulation with 9mers; for CD8+ or CD4+ T-cell response (18mer): restimulation with 18mer
Description: The concentration of antigen was increased from 20 μg to 50 μg and bi-weekly (bw) or weekly (w) dose intervals were tested.
The experimental design included the following 5 groups of C57BL/6 mice immunized with the listed compounds (n=5 for each group): • 1. KRas 12D+CpG1826 (bw) • 2. KRas 12D+CpG1826 (w) • 3. aKRas 12D+aCpG1826 (bw) • 4. aKRas 12D+aCpG1826 (w) • 5. No immunization
(§1) The adjuvant as well as peptide stock solutions were dissolved in H2O. Final injections were diluted with 1×PBS.
50 μg in 100 μl were used for each injection.
(§2) The aCpG sequence used was the CpG1826 sequence (5′-[…]-3′; SEQ ID NO:10) with two guanines added at the 5′ end (5′-gg […]-3′; SEQ ID NO:11) at a concentration of 5 nmol for each 100 μl injection.
Primer immunizations were given subcutaneously (s.c.) into the tail base with one booster dose after 2 weeks.
ELISpot analysis for IFNγ, and CBA (cytometric bead array) analysis for IL6, I-10, IL12, TNFα, IFNγ, and MCP1 was performed on splenocytes, using standard protocols, 7 days after booster dose administration.
Specific mutant peptides were given only to the mice that were immunized with the corresponding 18mer.
Separate plates were prepared for either short (9mer and 10mer) or long (17mer and 18mer) peptide stimulations. Cells from “No immunization” control mice were stimulated with all stimuli.

splenocytes [2] = assay: ELISpot analysis for IFNγ on splenocytes of immunized mice (Example 1, KRas G12D); assay type: in vivo, C57BL/6 mice; settings: splenocytes activated with G12D 18mer 5 μg/well
Description: The efficacy of soluble-KRas (KRas) or amphiphile-KRas (aKRas) (FIG. 6) mutant sequences and an amphiphile-CpG adjuvant (aCpG) to elicit an immune response was determined.
The experimental design included the following 4 groups of C57BL16 mice immunized with the listed compounds (n=5 for each group): • 1. KRas G12D+aCpG • 2. aKRas G12D+aCpG • 3. KRas G12D+pIC • 4. No immunization
PolyIC (pIC) was used as a benchmark adjuvant control.
The adjuvant, as well as peptide stock, solutions were dissolved in H2O. Final injections were diluted with 1×PBS (phosphate buffered saline).
The aKRas peptides used were 18mer sequences of mutant sequences with a G12D substitution (amino acids 4-21 of wild-type→YKLVVVGAGGVGKSALTI (SEQ ID NO:9)). 20 μg in 100 μl were used for each injection.
The aCpG sequence used was the CpG1826 sequence (5′-[…]-3′; SEQ ID NO:10) with two guanines added at the 5′ end (5′-gg […]-3′; SEQ ID NO:11) at a concentration of 5 nmol for each 100 μl injection. CpG1826 is an optimal mouse sequence while CpG7909 is optimal for humans and poorly active in mice. CpG1826 and CpG7909 are in the same CpG class (class B) and generally have similar activity profiles in their respective species.
50 μg of pIC were used for each 100 μl injection.
Primer immunizations were given subcutaneously (s.c.) into the tail base (day 0) with one booster dose after 2 weeks (day 14). ELISpot analysis for IFNγ on splenocytes was performed, using standard protocols, […] after booster dose administration (day 21). Splenocytes (10^6 cells/well) were activated with 5 μg/well of G12D sequence 18mer (aa4-21)→YKLVVVGADGVGKSALTI (SEQ ID NO:1).

PBMCs/Splenocytes = assay: ICS for IFNγ on PBMCs and ELISpot for IFNγ on splenocytes of immunized HLA-A2.1 transgenic mice (Example 3); assay type: in vivo, B6 HLA-A2.1 Tg mice; settings: peptide 20 μg s.c., two boosters at two-week intervals, HLA-A2.1 Tg mice
Description: B6 mice transgenic for the human HLA gene, A2.1, were immunized either with the soluble or amphiphile-conjugated forms of the KRas G12D antigen, as well as adjuvant (CpG or aCpG). The A2.1 allele is known to mount responses to the KRas peptides in humans.
The experimental design included the following 4 groups of B6 HLA-A2.1 Tg mice immunized with the listed compounds (n=5 for each group): • 1. KRas wild-type+CpG • 2. KRas 12D+CpG • 3. aKRas 12D+aCpG • 4. No immunization
as §1
The aKRas peptides used were 18mer sequences of mutant sequences with a G12D substitution (amino acids 4-21 of wild-type 4 […] (SEQ ID NO:9)). 20 μg in 100 μl were used for each injection.
as §2
The vaccine was administered subcutaneously to female mice bilaterally at the tail base at 50 μl per side. Two booster doses were given in two-week intervals.
Intracellular cytokine staining (ICS) analysis for IFNγ on peripheral blood mononuclear cells (PBMCs) and ELISpot analysis for IFNγ on splenocytes was performed, using standard protocols, 7 days after the second and third booster dose, respectively.
PBMCs/Splenocytes (10^6 cells/well and 2×10^6 cells/well) were activated with 5 μg/well of either SEQ ID NO:1 or one of SEQ ID NOS:12-20 as shown below:
Specific mutant peptides are given only to the mice that were immunized with the corresponding 18mer.

splenocytes [3] = assay: ELISpot analysis for IFNγ on splenocytes of immunized mice (Example 2, KRas G12R and G12V); assay type: in vivo, C57BL/6 mice; settings: in combination with aCpG 5 nmol; peptide 20 μg s.c. day 0 + booster d14; splenocytes activated with G12V or G12R 18mer 5 μg/well
Description: as §2

[4] = system: KRAS-specific splenic T-cells; assay: Summary of mouse immunogenicity studies: KRAS-specific splenic T-cells by ELISPOT and cytokine bead array (Example 5); assay type: in vivo, C57BL/6 mouse; settings: subcutaneous administration; identified by ELISPOT and cytokine bead array
[5] = in combination with aCpG 5 nmol, peptide 20 μg s.c. tail base day 0 + booster day 14
[6] = in combination with aCpG 5 nmol

Substance: YKLVVVGADGVGKSALTI [soluble KRas G12D]
- KRas-specific CD8+ T-cell response (9mers) (splenocytes [1]; in combination with CpG): not
- CD8+ or CD4+ T-cell response (18mer) (splenocytes [1]; in combination with CpG): not
- activation of splenocytes (ELISpot for IFNγ) (splenocytes [2]; [5]): did not
- activation of splenocytes (ELISpot for IFNγ) (splenocytes [2]; in combination with pIC 50 μg, peptide 20 μg s.c. day 0 + booster day 14): did not
- KRas-specific CD8+ T-cell response (PBMCs/Splenocytes; in combination with CpG): not

Substance: YKLVVVGARGVGKSALTI [soluble KRas G12R]
- activation of splenocytes (ELISpot for IFNγ) (splenocytes [3]): did not

Substance: YKLVVVGAGGVGKSALTI [soluble wild-type KRas]
- KRas-specific CD8+ T-cell response (PBMCs/Splenocytes; in combination with CpG): not

Substance: YKLVVVGAVGVGKSALTI [soluble KRas G12V]
- activation of splenocytes (ELISpot for IFNγ) (splenocytes [3]): did not

Substance: DSPE-amido-dPEG24-amido-dPEG24-CYKLVVVGADGVGKSALTI [aKRas G12D]
- inducing KRAS-specific splenic T-cells in mice [4]: effective
- KRas-specific CD8+ T-cell response (9mers) (splenocytes [1]; [6]): KRas-specific CD8^+ T-cell response
- CD8+ or CD4+ T-cell response (18mer) (splenocytes [1]; [6]): CD8′ or CD4*T-cell response; also recorded: CD8^+ or CD4^+ T-cell response
- activation of splenocytes (ELISpot for IFNγ) (splenocytes [2]; [5]): activated splenocytes
- KRas-specific CD8+ T-cell response (PBMCs/Splenocytes; [6]): KRas-specific CD8′ T-cell response; also recorded: KRas-specific CD8^+ T-cell response
